Data from patent US20120245137A1 (Zalicus Pharmaceuticals Ltd., priority 2009, published 2012).

Columns and labels:
[1] = biological target: human α1G T-type channels (Homo sapiens, UniProt O43497); test: T-type calcium channel block, whole cell patch clamp, α1G; format: cell-based; settings: HEK cells stably expressing human α1G; mainly non-inactivated protocol; values above 10,000 nM represented as 10000
In short: (§1)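 Cells are stable HEK 293 lines carrying human α1G or α1H channels, patched in whole-cell mode. Resting block comes from the non-inactivated pre-pulse; voltage-dependent block from the inactivated protocol.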

[2] = biological target: human α1H T-type channels (Homo sapiens, UniProt O95180); test: T-type calcium channel block, whole cell patch clamp, α1H; format: cell-based; settings: HEK cells stably expressing human α1H; mainly non-inactivated protocol; values above 10,000 nM represented as 10000
human α1H T-type channels, sequence (O95180 whole entry): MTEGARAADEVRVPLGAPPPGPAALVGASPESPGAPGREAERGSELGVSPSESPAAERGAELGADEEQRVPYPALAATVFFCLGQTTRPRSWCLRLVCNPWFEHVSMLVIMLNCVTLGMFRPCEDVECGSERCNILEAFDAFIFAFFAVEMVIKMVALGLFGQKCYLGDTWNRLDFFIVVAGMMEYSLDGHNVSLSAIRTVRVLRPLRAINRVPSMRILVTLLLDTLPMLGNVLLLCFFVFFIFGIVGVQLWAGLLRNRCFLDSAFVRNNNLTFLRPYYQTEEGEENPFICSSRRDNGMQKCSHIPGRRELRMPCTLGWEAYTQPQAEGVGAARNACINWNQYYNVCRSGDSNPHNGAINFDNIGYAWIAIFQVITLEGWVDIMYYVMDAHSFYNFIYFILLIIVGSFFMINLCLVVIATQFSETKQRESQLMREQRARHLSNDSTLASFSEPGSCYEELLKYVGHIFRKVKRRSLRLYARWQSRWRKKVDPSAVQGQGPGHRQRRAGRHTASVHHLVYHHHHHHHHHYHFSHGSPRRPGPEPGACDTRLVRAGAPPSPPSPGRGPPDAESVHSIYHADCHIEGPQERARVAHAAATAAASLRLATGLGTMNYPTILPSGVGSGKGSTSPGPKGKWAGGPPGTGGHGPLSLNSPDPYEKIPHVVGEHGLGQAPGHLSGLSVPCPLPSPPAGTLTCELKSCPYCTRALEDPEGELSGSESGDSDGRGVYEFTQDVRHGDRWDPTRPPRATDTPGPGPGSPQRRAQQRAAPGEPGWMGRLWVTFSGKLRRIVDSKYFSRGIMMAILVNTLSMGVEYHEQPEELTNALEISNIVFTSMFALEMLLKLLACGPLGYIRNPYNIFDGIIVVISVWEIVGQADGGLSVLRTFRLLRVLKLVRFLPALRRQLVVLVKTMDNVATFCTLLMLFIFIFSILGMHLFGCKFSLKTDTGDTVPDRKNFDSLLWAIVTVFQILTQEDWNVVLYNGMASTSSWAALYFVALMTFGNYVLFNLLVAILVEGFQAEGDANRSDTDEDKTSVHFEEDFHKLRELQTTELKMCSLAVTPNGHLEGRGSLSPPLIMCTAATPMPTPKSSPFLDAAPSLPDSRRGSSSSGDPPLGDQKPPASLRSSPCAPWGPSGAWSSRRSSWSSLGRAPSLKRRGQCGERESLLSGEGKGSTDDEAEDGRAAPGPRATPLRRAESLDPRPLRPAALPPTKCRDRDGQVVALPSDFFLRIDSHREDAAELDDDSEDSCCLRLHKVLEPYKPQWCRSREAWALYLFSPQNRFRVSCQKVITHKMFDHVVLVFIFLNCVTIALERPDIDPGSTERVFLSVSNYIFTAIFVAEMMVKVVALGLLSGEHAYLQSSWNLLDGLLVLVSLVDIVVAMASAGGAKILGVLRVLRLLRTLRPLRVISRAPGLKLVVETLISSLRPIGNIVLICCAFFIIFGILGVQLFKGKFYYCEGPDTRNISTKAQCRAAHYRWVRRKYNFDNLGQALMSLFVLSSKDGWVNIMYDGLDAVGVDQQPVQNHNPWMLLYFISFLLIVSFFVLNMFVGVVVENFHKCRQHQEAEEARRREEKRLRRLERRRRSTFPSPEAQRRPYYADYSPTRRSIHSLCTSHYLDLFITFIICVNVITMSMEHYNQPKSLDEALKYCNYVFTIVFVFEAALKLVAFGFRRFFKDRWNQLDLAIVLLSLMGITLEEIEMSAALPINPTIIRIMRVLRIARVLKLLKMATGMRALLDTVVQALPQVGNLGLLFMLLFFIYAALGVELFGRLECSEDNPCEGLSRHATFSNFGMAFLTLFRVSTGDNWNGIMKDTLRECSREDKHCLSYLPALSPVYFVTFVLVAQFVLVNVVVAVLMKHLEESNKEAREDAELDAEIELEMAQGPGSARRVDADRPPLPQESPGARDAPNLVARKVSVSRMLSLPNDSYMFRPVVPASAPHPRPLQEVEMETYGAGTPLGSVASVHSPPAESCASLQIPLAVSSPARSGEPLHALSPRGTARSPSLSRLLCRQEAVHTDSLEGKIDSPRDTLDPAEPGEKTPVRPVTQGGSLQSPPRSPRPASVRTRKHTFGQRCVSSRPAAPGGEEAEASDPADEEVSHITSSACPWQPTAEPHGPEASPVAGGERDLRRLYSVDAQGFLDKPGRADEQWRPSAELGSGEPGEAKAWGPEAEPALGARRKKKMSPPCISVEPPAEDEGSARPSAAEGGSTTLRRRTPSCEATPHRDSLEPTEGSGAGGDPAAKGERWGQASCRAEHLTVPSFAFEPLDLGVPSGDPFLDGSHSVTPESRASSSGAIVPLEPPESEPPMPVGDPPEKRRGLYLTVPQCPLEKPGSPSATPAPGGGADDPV
In short: as §1

human α1G T-type channels, sequence (O43497 whole entry): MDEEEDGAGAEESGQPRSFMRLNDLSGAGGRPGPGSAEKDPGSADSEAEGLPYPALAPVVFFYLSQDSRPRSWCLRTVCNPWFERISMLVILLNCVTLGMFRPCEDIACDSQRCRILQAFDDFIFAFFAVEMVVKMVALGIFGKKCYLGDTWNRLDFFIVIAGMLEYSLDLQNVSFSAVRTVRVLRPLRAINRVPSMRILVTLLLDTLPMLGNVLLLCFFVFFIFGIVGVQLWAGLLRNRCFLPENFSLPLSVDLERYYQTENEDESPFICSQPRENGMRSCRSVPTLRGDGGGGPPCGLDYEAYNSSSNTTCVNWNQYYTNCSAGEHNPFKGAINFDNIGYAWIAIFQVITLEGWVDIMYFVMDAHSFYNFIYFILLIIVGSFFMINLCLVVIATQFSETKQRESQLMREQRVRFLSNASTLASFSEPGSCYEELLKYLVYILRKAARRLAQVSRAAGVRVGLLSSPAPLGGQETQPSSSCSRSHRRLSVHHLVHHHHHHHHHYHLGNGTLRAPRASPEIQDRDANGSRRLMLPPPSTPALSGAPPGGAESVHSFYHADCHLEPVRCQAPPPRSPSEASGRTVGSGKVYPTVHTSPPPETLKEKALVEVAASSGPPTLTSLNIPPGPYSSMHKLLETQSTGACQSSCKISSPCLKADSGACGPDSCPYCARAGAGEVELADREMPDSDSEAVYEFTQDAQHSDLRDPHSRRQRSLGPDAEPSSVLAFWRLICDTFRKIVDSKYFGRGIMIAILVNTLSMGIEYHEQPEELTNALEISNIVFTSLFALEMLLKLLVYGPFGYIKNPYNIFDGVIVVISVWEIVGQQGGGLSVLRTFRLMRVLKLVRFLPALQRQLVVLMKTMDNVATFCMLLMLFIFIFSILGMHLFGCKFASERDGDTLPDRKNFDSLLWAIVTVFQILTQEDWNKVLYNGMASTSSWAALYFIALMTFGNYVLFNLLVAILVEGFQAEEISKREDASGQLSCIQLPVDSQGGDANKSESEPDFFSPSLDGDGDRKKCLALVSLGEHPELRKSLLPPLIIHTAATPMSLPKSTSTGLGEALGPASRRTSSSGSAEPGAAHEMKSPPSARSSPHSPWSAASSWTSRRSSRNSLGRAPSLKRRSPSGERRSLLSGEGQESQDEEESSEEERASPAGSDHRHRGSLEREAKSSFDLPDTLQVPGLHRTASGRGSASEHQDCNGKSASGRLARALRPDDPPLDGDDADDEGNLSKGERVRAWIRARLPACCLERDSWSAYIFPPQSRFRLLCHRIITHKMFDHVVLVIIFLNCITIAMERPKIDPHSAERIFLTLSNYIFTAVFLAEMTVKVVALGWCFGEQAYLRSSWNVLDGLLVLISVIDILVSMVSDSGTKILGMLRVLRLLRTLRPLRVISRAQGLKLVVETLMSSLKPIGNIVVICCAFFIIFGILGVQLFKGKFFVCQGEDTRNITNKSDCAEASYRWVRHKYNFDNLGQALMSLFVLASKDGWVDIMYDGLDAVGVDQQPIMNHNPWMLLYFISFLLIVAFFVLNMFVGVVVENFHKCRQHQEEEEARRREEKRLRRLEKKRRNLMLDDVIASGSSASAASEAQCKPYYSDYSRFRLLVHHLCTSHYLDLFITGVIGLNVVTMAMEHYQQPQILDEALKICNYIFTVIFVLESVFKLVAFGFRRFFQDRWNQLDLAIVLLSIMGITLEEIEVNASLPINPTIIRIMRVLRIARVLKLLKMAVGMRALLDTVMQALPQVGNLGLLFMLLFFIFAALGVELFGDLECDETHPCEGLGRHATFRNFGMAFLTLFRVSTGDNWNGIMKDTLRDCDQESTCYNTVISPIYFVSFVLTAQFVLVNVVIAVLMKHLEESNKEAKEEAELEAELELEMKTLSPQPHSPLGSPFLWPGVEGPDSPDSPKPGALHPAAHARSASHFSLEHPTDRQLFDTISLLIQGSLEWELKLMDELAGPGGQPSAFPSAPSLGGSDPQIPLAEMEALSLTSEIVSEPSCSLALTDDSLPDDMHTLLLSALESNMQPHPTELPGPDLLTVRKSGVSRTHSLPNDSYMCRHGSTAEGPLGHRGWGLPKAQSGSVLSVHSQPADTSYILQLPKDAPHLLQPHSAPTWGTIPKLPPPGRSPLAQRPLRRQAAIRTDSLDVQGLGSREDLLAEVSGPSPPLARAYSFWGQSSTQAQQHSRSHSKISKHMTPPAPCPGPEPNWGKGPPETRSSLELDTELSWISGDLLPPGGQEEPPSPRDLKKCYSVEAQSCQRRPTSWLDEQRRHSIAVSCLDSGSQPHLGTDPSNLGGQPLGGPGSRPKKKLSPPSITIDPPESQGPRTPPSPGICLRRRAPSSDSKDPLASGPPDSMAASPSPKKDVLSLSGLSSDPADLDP

IC50 [1] | IC50 [2] | Compound
260 nM | 2.41 µM | CC(C)(C(=O)NCCc1ccc(Cl)c(Cl)c1)S(=O)(=O)c1cccc(C(F)(F)F)c1 [Compound 451, N-(3,4-dichlorophenethyl)-2-methyl-2-(3-(trifluoromethyl)phenylsulfonyl)propanamide]
190 nM | 2.81 µM | CC(C)(C(=O)Nc1ccc(Oc2ccc(F)cc2)nc1)S(=O)(=O)c1cccc(C(F)(F)F)c1 [Compound 503, N-(6-(4-fluorophenoxy)pyridin-3-yl)-2-methyl-2-(3-(trifluoromethyl)phenylsulfonyl)propanamide]
130 nM | 5.84 µM | CC(C)(CCNC(=O)c1ccc(C(F)(F)F)cn1)S(=O)(=O)c1cccc(C(F)(F)F)c1 [Compound 470, N-(3-methyl-3-(3-(trifluoromethyl)phenylsulfonyl)butyl)-5-(trifluoromethyl)picolinamide]
480 nM | 6.97 µM | CC(C)(CNC(=O)c1cc(C(F)(F)F)ccn1)S(=O)(=O)c1cccc(C(F)(F)F)c1 [Compound 475, N-(2-methyl-2-(3-(trifluoromethyl)phenylsulfonyl)propyl)-4-(trifluoromethyl)picolinamide]
210 nM | 3.31 µM | CC(C)(C(=O)Nc1ccc(Oc2ccccc2)cc1)S(=O)(=O)c1cccc(C(F)(F)F)c1 [Compound 487, 2-methyl-N-(4-phenoxyphenyl)-2-(3-(trifluoromethyl)phenylsulfonyl)propanamide]
470 nM | 2.88 µM | CC(C)(C(=O)Nc1ccc(Oc2ccc(C(F)(F)F)nc2)nc1)S(=O)(=O)c1cccc(C(F)(F)F)c1 [Compound 525, 2-methyl-2-(3-(trifluoromethyl)phenylsulfonyl)-N-(6-(6-(trifluoromethyl)pyridin-3-yloxy)pyridin-3-yl) propanamide]
3560 nM | > 10 µM | O=C(N[C@H]1CC[C@@](F)(S(=O)(=O)c2cccc(C(F)(F)F)c2)CC1)[C@H]1CCCCN1 [Compound 531, (R)-N-((1S,4S)-4-fluoro-4-(3-(trifluoromethyl)phenylsulfonyl)cyclohexyl) piperidine-2-carboxamide]
610 nM | 3.48 µM | CN(Cc1ccc(F)c(C(F)(F)F)c1)C(=O)C(C)(C)S(=O)(=O)c1cccc(C(F)(F)F)c1 [Compound 454, N-(4-fluoro-3-(trifluoromethyl)benzyl)-N,2-dimethyl-2-(3-(trifluoromethyl)phenylsulfonyl)propanamide]
720 nM | > 10 µM | COc1c(C)cc(C(=O)NCC(C)(C)S(=O)(=O)c2cccc(C(F)(F)F)c2)cc1C [Compound 481, 4-methoxy-3,5-dimethyl-N-(2-methyl-2-(3-(trifluoromethyl)phenylsulfonyl)propyl) benzamide]
170 nM | 1.17 µM | Cn1nc(C(F)(F)F)cc1C(=O)NCCC(C)(C)S(=O)(=O)c1cccc(C(F)(F)F)c1 [Compound 467, 1-methyl-N-(3-methyl-3-(3-(trifluoromethyl)phenylsulfonyl)butyl)-3-(trifluoromethyl)-1H-pyrazole-5-carboxamide]
> 10000 nM | 2.48 µM | O=C(N[C@H]1CC[C@H](CS(=O)(=O)c2cccc(C(F)(F)F)c2)CC1)C1CCOCC1 [Compound 105, N-((1R,4R)-4-((3-(trifluoromethyl)phenylsulfonyl)methyl)cyclohexyl)tetrahydro-2H-pyran-4-carboxamide]
600 nM | 4.12 µM | CC1(C)CCC(NCC(C)(C)S(=O)(=O)c2cccc(C(F)(F)F)c2)CC1 [Compound 518, 4,4-dimethyl-N-(2-methyl-2-(3-(trifluoromethyl)phenylsulfonyl)propyl) cyclohexanamine]
350 nM | 1.08 µM | CC(C)(CCNC(=O)c1ccc(F)c(C(F)(F)F)c1)S(=O)(=O)c1cc(F)cc(C(F)(F)F)c1 [Compound 533, 4-fluoro-N-(3-(3-fluoro-5-(trifluoromethyl)phenylsulfonyl)-3-methylbutyl)-3-(trifluoromethyl)benzamide]
50 nM | 0.96 µM | CC(C)(CCNC(=O)c1cc(F)cc(Cl)c1)S(=O)(=O)c1cccc(C(F)(F)F)c1 [Compound 465, 3-chloro-5-tluoro-N-(3-methyl-3-(3-(trifluoromethyl)phenylsulfonyl)butyl) benzamide]
400 nM | 3.53 µM | CC(C)(CNS(=O)(=O)c1ccccc1C(F)(F)F)S(=O)(=O)c1cccc(C(F)(F)F)c1 [Compound 494, N-(2-methyl-2-(3-(trifluoromethyl)phenylsulfonyl)propyl)-2-(trifluoromethyl) benzenesulfonamide]
560 nM | 1.2 µM | CC(C)(CNC(=O)c1nc2cc(C(F)(F)F)ccc2[nH]1)S(=O)(=O)c1cccc(C(F)(F)F)c1 [Compound 457, N-(2-methyl-2-(3-(trifluoromethyl)phenylsulfonyl)propyl)-5-(trifluoromethyl)-1H-benzo[d]imidazole-2-carboxamide]
570 nM | 9.81 µM | CN(CCc1ccc(F)cc1)C(=O)C(C)(C)S(=O)(=O)c1cccc(C(F)(F)F)c1 [Compound 452, N-(4-fluorophenethyl)-N,2-dimethyl-2-(3-(trifluoromethyl)phenylsulfonyl)propanamide]
510 nM | 0.86 µM | CC(C)(CC(=O)Nc1ccc(Oc2ccc(F)cc2)cc1)S(=O)(=O)c1cccc(C(F)(F)F)c1 [Compound 486, N-(4-(4-fluorophenoxy)phenyl)-3-methyl-3-(3-(trifluoromethyl)phenylsulfonyl)butanamide]
840 nM | > 10 µM | CN(CCC(C)(C)S(=O)(=O)c1cccc(C(F)(F)F)c1)C(=O)c1cn2ccc(C(F)(F)F)cc2n1 [Compound 514, N-methyl-N-(3-methyl-3-(3-(trifluoromethyl)phenylsulfonyl)butyl)-7-(trifluoromethyl)imidazo[1,2-a]pyridine-2-carboxamide]
470 nM | 0.74 µM | CC(C)(CCNC(=O)c1ccc(Oc2ccc(Cl)cc2)cc1)S(=O)(=O)c1cc(F)cc(C(F)(F)F)c1 [Compound 537, 4-(4-chlorophenoxy)-N-(3-(3-fluoro-5-(trifluoromethyl)phenylsulfonyl)-3-methylbutyl)benzamide]
> 10000 nM | 6.73 µM | Cc1cc(C(=O)N[C@H]2CC[C@H](CS(=O)(=O)c3cccc(C(F)(F)F)c3)CC2)c(C(F)(F)F)o1 [Compound 172, 5-methyl-2-(trifluoromethyl)-N-((1R,4R)-4-((3-(trifluoromethyl)phenylsulfonyl)methyl)cyclohexyl)furan-3-carboxamide]
540 nM | > 10 µM | CC(C)(C)C(=O)Nc1ccncc1C(=O)NCC(C)(C)S(=O)(=O)c1cccc(C(F)(F)F)c1 [Compound 477, N-(2-methyl-2-(3-(trifluoromethyl)phenylsulfonyl)propyl)-4-pivalamidonicotinamide]
100 nM | > 10 µM | CC(C)(CCS(=O)(=O)c1cccc(C(F)(F)F)c1)S(=O)(=O)c1cccc(C(F)(F)F)c1 [Compound 460]
60 nM | 2.14 µM | COc1cc(F)cc(C(=O)NCCC(C)(C)S(=O)(=O)c2cccc(C(F)(F)F)c2)c1 [Compound 464, 3-fluoro-5-methoxy-N-(3-methyl-3-(3-(trifluoromethyl)phenylsulfonyl)butyl) benzamide]
400 nM | 2.5 µM | CC(C)(CNC(=O)c1cc(F)cc(Cl)c1)S(=O)(=O)c1cccc(C(F)(F)F)c1 [Compound 455, 3-chloro-5-fluoro-N-(2-methyl-2-(3-(trifluoromethyl)phenylsulfonyl)propyl)benzamide]
610 nM | > 10 µM | CC(C)(C)NC(=O)CNCCC(C)(C)S(=O)(=O)c1cccc(C(F)(F)F)c1 [Compound 471, N-tert-butyl-2-(3-methyl-3-(3-(trifluoromethyl)phenylsulfonyl)butylamino) acetamide]
> 10000 nM | 8.36 µM | O=C(N[C@H]1CC[C@H](CS(=O)(=O)c2cccc(C(F)(F)F)c2)CC1)c1cc(C(F)(F)F)n[nH]1 [Compound 112, 3-(trifluoromethyl)-N-((lR,4R)-4-((3-(trifluoromethyI)phenylsulfonyl)methyl)cyclohexyl)-1H-pyrazole-5-carboxamide]
720 nM | 5.44 µM | CC(C)(CNC(=O)c1ccc(Cl)cc1Cl)S(=O)(=O)c1cccc(C(F)(F)F)c1 [Compound 480, 2,4-dichloro-N-(2-methyl-2-(3-(trifluoromethyl)phenylsulfonyl)propyl) benzamide]
560 nM | > 10 µM | CC(C)(CCNC(=O)c1ncc(C(F)(F)F)cc1S(C)(=O)=O)S(=O)(=O)c1cccc(C(F)(F)F)c1 [Compound 523, N-(3-methyl-3-(3-(trifluoromethyl)phenylsulfonyl)butyl)-3-(methylsulfonyl)-5-(trifluorornethyl)picolinamide]
270 nM | 5.34 µM | CC(C)(CNC(=O)c1nc2cc(F)ccc2[nH]1)S(=O)(=O)c1cccc(C(F)(F)F)c1 [Compound 478, 5-fluoro-N-(2-methyl-2-(3-(trifluoromethyl)phenylsulfonyl)propyl)-1H-benzo[d]imidazole-2-carboxamide]

Compound | IC50 [1] | IC50 [2]
CC(C)(C)Oc1ccc(CNC(=O)C(C)(C)S(=O)(=O)c2cccc(C(F)(F)F)c2)cc1 [Compound 502, N-(4-tert-butoxybenzyl)-2-methyl-2-(3-(trifluoromethyl)phenylsulfonyl)propanamide] | 360 nM | 3.06 µM
1-(trifluoromethyl)-N-((1R,4R)-4- ((3- (trifluoromethyl)phenylsulfonyl) methyl)cyclohexyl) cyclobutanecarboxamide [Compound 109] | > 10000 nM | > 10 µM
